How the values were obtained:
RXRβ = molecular target: T1, RXRβ (Homo sapiens, UniProt P28702); test: Competitive displacement of [3H]-9CRA from purified receptor; conditions: 10 nM [3H]-9CRA; read-out: RXR Binding Affinity Ki (nM) RXRβ
T1 construct: an expression construct including a full length RXRα, RXRβ, or RXRy; expressed in transfected cells; host or cells: CV-1
T1 sequence (P28702 1-533): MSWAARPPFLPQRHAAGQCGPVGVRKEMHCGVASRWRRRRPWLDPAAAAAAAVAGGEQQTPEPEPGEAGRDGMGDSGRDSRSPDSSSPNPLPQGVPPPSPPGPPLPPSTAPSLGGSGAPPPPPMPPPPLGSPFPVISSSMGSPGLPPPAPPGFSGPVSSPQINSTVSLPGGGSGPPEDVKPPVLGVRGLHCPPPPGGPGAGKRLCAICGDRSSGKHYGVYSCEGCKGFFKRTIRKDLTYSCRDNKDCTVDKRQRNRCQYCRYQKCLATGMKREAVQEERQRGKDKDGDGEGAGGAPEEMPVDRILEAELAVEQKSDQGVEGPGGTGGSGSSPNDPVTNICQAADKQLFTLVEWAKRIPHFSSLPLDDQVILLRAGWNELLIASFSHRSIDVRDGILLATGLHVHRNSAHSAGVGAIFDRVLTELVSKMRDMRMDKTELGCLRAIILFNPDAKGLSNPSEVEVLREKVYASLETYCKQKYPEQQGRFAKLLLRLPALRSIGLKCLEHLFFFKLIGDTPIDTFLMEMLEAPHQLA
Source text: (§1) Standard errors (±) among independent experiments are indicated.

RXRα = molecular target: T2, RXRα (Homo sapiens, UniProt P19793); test: as above; conditions: 10 nM [3H]-9CRA; read-out: RXR Binding Affinity Ki (nM) RXRα
T2 construct: an expression construct including a full length RXRα, RXRβ, or RXRy; expressed in transfected cells; host or cells: CV-1
T2 sequence (P19793 1-462): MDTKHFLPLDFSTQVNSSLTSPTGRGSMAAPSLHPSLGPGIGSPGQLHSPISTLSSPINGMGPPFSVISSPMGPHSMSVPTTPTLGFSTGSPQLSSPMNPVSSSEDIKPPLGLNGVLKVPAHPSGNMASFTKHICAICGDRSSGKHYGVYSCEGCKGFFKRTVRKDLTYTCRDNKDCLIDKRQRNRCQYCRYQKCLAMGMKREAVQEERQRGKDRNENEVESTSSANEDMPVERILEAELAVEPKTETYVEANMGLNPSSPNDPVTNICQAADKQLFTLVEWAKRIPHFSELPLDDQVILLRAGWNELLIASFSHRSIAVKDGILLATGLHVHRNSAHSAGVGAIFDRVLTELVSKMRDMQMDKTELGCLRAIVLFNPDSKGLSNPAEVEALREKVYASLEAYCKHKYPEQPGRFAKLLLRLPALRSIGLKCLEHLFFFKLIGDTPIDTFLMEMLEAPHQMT
Source text: as §1

[1] = Cmax after oral doses of IRX4204; conditions: in vivo, 24 mg/m2; oral doses of 24 mg/m^2/day

| SMILES | Ki (RXRβ) | Ki (RXRα) | Cmax [1] |
| --- | --- | --- | --- |
| CCOC(=O)/C=C(C)/C=C/[C@@H]1C[C@]1(C)c1ccc2c(c1)C(C)(C)CCC2(C)C [IRX4204EE, 3,7-dimethyl-6(S),7(S)-methano,7-[1,1,4,4-tetramethyl-1,2,3,4-tetrahydronaphth-7-yl]2(E),4(E) heptadienoic ethyl ester] | > 1000 nM | > 1000 nM |  |
| CC(/C=C/[C@@H]1C[C@]1(C)c1ccc2c(c1)C(C)(C)CCC2(C)C)=C\C(=O)O [IRX4204, 3,7-dimethyl-6(S),7(S)-methano,7-[1,1,4,4-tetramethyl-1,2,3,4-tetrahydronaphth-7-yl]2(E),4(E) heptadienoic acid] |  |  | 219 nM |

Reference: patent publication US20230129034A1, “TREATMENT OF DISEASE WITH ESTERS OF SELECTIVE RXR AGONISTS” (Io Therapeutics, Inc., priority 2017, published 2023)
